Here are results for 26 substances from patent publication US8900880B2, “Viral citrullinated peptides and uses thereof” (Toscana Biomarkers S.R.L., priority 2009, dated 2014).

Like-named read-outs stand apart in the source and are kept apart here. Where no end group is shown, it is not given here. [ ]: non-standard residue; d: D form. Cit = NC(=O)NCCC[C@H](N)C(=O)O

Experiment [1] concerns IgG antibodies in RA and NHS sera. The experiment can be described thus: ELISA with differently citrullinated EBNA-2(338-358) peptides (Example 6). It counts as binding, human. As to conditions: for NHS positive sera: 23 normal healthy subjects; for NHS positive sera / RA positive sera: positive = greater than 97.5th percentile of normal control group; for RA positive sera: 24 RA patients; for reactivity with RA sera (in words): 24 RA sera, relevant = more than 25% positive. From the text: The role of the number and of the position of citrullines inside EBNA-2(338-358) sequence in the detection of specific antibodies in RA sera was investigated by means of differently citrullinated peptides (Table 1).
It is believed that these two positions relate to two different antigenic regions.

The next experiment has as its system anti-SmD1 IgG antibodies. As to conditions: cited from earlier work.
In experiment [2] the test system is anti-CP IgG antibodies in RA patients' serum. As to conditions: 100 RA patients; IgG; cut-off 97.5th percentile of normal controls. On the procedure: The ability to recognize specific antibodies in RA patients by MAP of formula (V), in comparison with the MAP of formula (VI) was evaluated by ELISA.
MAP of formula (V) and MAP of formula (VI) were diluted respectively to a concentration of 20 μg/ml and 5 μg/ml in PBS, loaded into the wells of a polystyrene micro-titration plate (50 μl/well), and left overnight at +4° C. Upon completion of the coating period, the wells were treated for 1 hour at RT with 3% BSA in PBS. The patients' serum samples (diluted 1:200 in a buffer constituted by 1% BSA, 0.05% Tween X-100 in PBS) were then loaded onto the plate (50 μl/well) and left to incubate for 3 hours at RT. After the incubation period, one washing was performed with 1% PBS Tween X-100 and two washings were performed with PBS (150 μl/well). An anti human-IgG antibody conjugated to the enzyme alkaline phosphatase (50 μl/well), diluted 1:3000 in 1% PBS BSA, 0.05% Tween X-100, was incubated for 3 hours at RT with stirring. Upon completion of the incubation, after three washings as described above, p-nitrophenyl phosphate was added to the wells and the absorbance at a wavelength of 405 nm was determined. The results of the test were expressed as the percentage of positivity, calculated by dividing the absorbance of each serum sample by the absorbance of a positive serum sample the value of which was set arbitrarily at 100.
Serum samples of 100 patients suffering from RA were tested by this method.

For experiment [3], the system named is autoantibodies in RA sera. The experiment can be described thus: 79 RA patients tested for anti-CCP2, anti-CCP3, anti-VCP1 and anti-VCP2 (FIG. 1). The format is binding, human. From the text:
FIG. 1. […] The presence of different populations of autoantibodies is depicted in the block diagram. Number of RA sera positive (+) or negative (−) to anti-CCP2, anti-CCP3, anti-VCP1 [peptide of formula (VI)], and anti-VCP2 [peptide of formula (V)] are shown above the diagram.
Noteworthy, 7/79 (9%) anti-CCP2 and anti-CCP3 negative sera are positive to the peptide of formula (VI); 2/79 (3%) anti-CCP2 and anti-CCP3 negative sera are positive to peptide of formula (V); 1/79 (1%) anti-CCP2 and anti-CCP3 negative serum is positive to both peptides of formula (V) and formula (VI). Thus, formula (V) and (VI) allow to detect antibodies in a subgroup of anti-CCP negative RA patients (FIG. 1).

Experiment [4] concerns anti-VCP1 antibodies in RA and control sera. The note with it: cited from earlier work.
[5] abbreviates: WO2004087747, MAP as coating antigen.

Turning to “GQSRGQSCitGRGCitGRGCitGRGKG (GQSRGQS[Cit]GRG[Cit]GRG[Cit]GRGKG)”, in experiment [1], the NHS positive sera is on record as 1/23 and the RA positive sera is reported as 10/24.

With “GQSRGQSCitGRGRGRGCitGRGKG (GQSRGQS[Cit]GRGRGRG[Cit]GRGKG) [[Cit^345, Cit^353]EBNA2(338-358)]”, in experiment [1], the NHS positive sera is 2/23 and the RA positive sera is given as 6/24.

“GQSRGQSRGRGCitGRGRGRGKG (GQSRGQSRGRG[Cit]GRGRGRGKG) [[Cit^349]EBNA2(338-358)]”: in experiment [1], the NHS positive sera is 1/23 and the RA positive sera is 9/24.

For the substance “GQSRGQSRGCitGRGRGRGRGKG (GQSRGQSRG[Cit]GRGRGRGRGKG) [[Cit^347]EBNA2(338-358)]”, in experiment [1], the NHS positive sera is 1/23 and the RA positive sera is given as 6/24.

In the case of “GQSRGQSRGRGCitGCitGRGRGKG (GQSRGQSRGRG[Cit]G[Cit]GRGRGKG) [[Cit^349, Cit^351]EBNA2(338-358)]”, in experiment [1], the NHS positive sera is listed as 2/23, the RA positive sera is given as 15/24 and the “reactivity with RA sera (in words)” value is recorded as “very active”. Also, the “specificity and selectivity (in words)” value in experiment [1] (RA versus NHS sera) was “less specific and selective”.

In the case of “EBNA-2(354-373): non deiminated sequence EBNA2(354-373) of Incaprera et al.”, in the experiment with anti-SmD1 IgG antibodies (Incaprera et al. 1998), the “IgG detection in IM and SLE sera” value is on record as “detection of IgGs”. Moreover, the antibody recognition result with anti-SmD1 IgG antibodies (systemic lupus erythematosus autoimmunity) is on record as “recognizes anti-SmD1 IgG antibodies”.

Consider “GQSCitGQSCitGRGCitGRGRGRGKG (GQS[Cit]GQS[Cit]GRG[Cit]GRGRGRGKG)”, for which, in experiment [1], the NHS positive sera is 1/23, the RA positive sera was 12/24 and the “reactivity with RA sera (in words)” value is recorded as “most active peptide in this series”.

Regarding “GQSRGQSCitGCitGCitGRGRGRGKG (GQSRGQS[Cit]G[Cit]G[Cit]GRGRGRGKG) [[Cit345, Cit^347, Cit^349]EBNA2(338-358)]”, in experiment [1], the NHS positive sera is 1/23 and the RA positive sera is reported as 9/24.

In the case of “GQSRGQSRGRGRGRGRGCitGKG (GQSRGQSRGRGRGRGRG[Cit]GKG) [[Cit^355]EBNA2(338-358)]”, in experiment [1], the NHS positive sera is on record as 2/23 and the RA positive sera is given as 3/24.

“GQSCitGQSRGRGRGCitGRGRGKG (GQS[Cit]GQSRGRGRG[Cit]GRGRGKG; not fully specified) [[Cit^341, Cit^349]EBNA2(338-358)]”: in experiment [1], the NHS positive sera was 0/23 and the RA positive sera is listed as 6/24.

As to “GQSRGQSCitGRGRGRGRGCitGKG (GQSRGQS[Cit]GRGRGRGRG[Cit]GKG) [[Cit^345, Cit^355]EBNA2(338-358)]”, in experiment [1], the NHS positive sera is listed as 0/23 and the RA positive sera is given as 11/24.

Consider “GQSRGQSCitGCitGRGRGRGRGKG (GQSRGQS[Cit]G[Cit]GRGRGRGRGKG) [[Cit^345, Cit^347]EBNA2(338-358)]”, for which, in experiment [1], the NHS positive sera was 1/23 and the RA positive sera is 10/24.

As to “GQSRGQSRGCitGRGCitGRGRGKG (GQSRGQSRG[Cit]GRG[Cit]GRGRGKG; not fully specified) [[Cit^347, Cit^349]EBNA2(338-358)]”, in experiment [1], the NHS positive sera was 1/23 and the RA positive sera is on record as 5/24.

In the case of “GQSCitGQSRGRGRGRGRGCitGKG (GQS[Cit]GQSRGRGRGRGRG[Cit]GKG) [[Cit^341, Cit^355]EBNA2(338-358)]”, in experiment [1], the NHS positive sera is given as 1/23 and the RA positive sera is listed as 8/24.

For “GQSRGQSRGRGRGCitGRGCitGKG (GQSRGQSRGRGRG[Cit]GRG[Cit]GKG; not fully specified) [[Cit^349, Cit^355]EBNA2(338-358)]”, in experiment [1], the NHS positive sera is recorded as 0/23 and the RA positive sera was 9/24.

As for “GQSRGQSRGRGRGRGCitGRGKG (GQSRGQSRGRGRGRG[Cit]GRGKG) [[Cit^353]EBNA2(338-358)]”, in experiment [1], the NHS positive sera is recorded as 0/23 and the RA positive sera is listed as 6/24.

Take “GQSRGQSCitGRGCitGRGRGCitGKG (GQSRGQS[Cit]GRG[Cit]GRGRG[Cit]GKG)”: in experiment [1], the NHS positive sera is 0/23 and the RA positive sera is 8/24.

With “GQSRGQSCitGRGRGRGRGRGKG (GQSRGQS[Cit]GRGRGRGRGRGKG) [[Cit^345]EBNA2(338-358)]”, in experiment [1], the NHS positive sera is 1/23 and the RA positive sera was 9/24.

With “GQSRGQSRGRGRGCitGRGRGKG (GQSRGQSRGRGRG[Cit]GRGRGKG) [[Cit^351]EBNA2(338-358)]”, in experiment [1], the NHS positive sera is 1/23 and the RA positive sera is listed as 6/24.

With “GQSCitGQSCitGRGRGRGRGRGKG (GQS[Cit]GQS[Cit]GRGRGRGRGRGKG) [[Cit^341, Cit^345]EBNA2(338-358)]”, in experiment [1], the NHS positive sera is given as 0/23 and the RA positive sera is given as 12/24.

“GQSCitGQSRGRGRGRGRGRGKG (GQS[Cit]GQSRGRGRGRGRGRGKG) [[Cit^341]EBNA2(338-358)]”: in experiment [1], the NHS positive sera is given as 1/23 and the RA positive sera was 4/24.

Regarding “GQSRGQSCitGRGCitGRGRGRGKG (GQSRGQS[Cit]GRG[Cit]GRGRGRGKG) [[Cit^345, Cit^349]EBNA2(338-358)]”, in experiment [1], the NHS positive sera is recorded as 0/23; the RA positive sera is 15/24; the “reactivity with RA sera (in words)” value was “most active and selective di-citrullinated peptide”.

Take “GQSRGQSCitGRGCitGCitGRGRGKG (GQSRGQS[Cit]GRG[Cit]G[Cit]GRGRGKG)”: in experiment [1], the NHS positive sera is given as 1/23 and the RA positive sera is recorded as 8/24.

As to “GQSRGQSCitGRGRGCitGRGRGKG (GQSRGQS[Cit]GRGRG[Cit]GRGRGKG) [[Cit^345, Cit^351]EBNA2(338-358)]”, in experiment [1], the NHS positive sera is 1/23 and the RA positive sera is reported as 12/24.

Take “GQSRGQSRGRGRGCitGCitGRGKG (GQSRGQSRGRGRG[Cit]G[Cit]GRGKG; not fully specified) [[Cit^349, Cit^353]EBNA2(338-358)]”: in experiment [1], the NHS positive sera is listed as 0/23 and the RA positive sera is 12/24.

“(G G D N H G Cit G Cit G Cit G Cit G Cit G G G Cit P G A P G)4 K2 K beta-Alanine [VCP1]”: in experiment [2], the “anti-CP MAP antibodies found in the RA cohort” value turned out to be 47%. The “RA sera containing antibodies reacting with either one of the two MAP” value in experiment [3] (comparison of MAP of formula (V) and MAP of formula (VI)) was 15%. Moreover, the “anti-CCP2 and anti-CCP3 negative sera positive to the peptide” value in experiment [3] (of 79 RA patients) is 9%. The “anti-CCP2 and anti-CCP3 negative serum positive to both peptides” value in experiment [3] (of 79 RA patients (1/79)) amounted to 1%. For the same substance, the “positive RA sera” value in experiment [3] (population of 79 RA patients) stood at 62%. For the same substance, the “anti-VCP1 antibodies found in RA sera” value in experiment [4] (Anzilotti et al. 2006, 300 RA patients) was 45%. Further, the “anti-VCP1 antibodies found in controls” value in experiment [4] (Anzilotti et al. 2006, 327 controls) is given as “less than 5%”. Further, in experiment [4] (Pratesi et al. 2006), the “antibodies detected in RA sera” value is reported as 50%; the “antibodies detected in normal and disease control sera” value is listed as “less than 5%”. In experiment [4] (setting [5]), the “antibodies detected in RA sera” value is 45% and the specificity is 95%.
